Laboratory results as given in patent publication US20250195521A1 (Revolution Medicines, Inc., priority 2020, published 2025).
Read-outs that look alike come from different tables or passages of the source.

Key:
AsPC-1 (K-Ras G12D) [1] = assay: CellTiter-Glo cell viability assay, AsPC-1; assay type: cell-based, human; conditions: Homo sapiens, ASPC1, 120 h, read-out: AsPC-1 Cell Viability IC50
Protocol: Note—The following protocol describes a procedure for monitoring cell viability of K-Ras mutant cancer cell lines in response to a compound of the invention. Other RAS isoforms may be employed, though the number of cells to be seeded will vary based on cell line used.
Test compounds (132.5 nL) were directly dispensed into the assay plates containing cells. […] On day 5, assay plates and their contents were equilibrated to room temperature for approximately 30 minutes. […] Luminescence was measured using the PerkinElmer Enspire. Data were normalized by the following: (Sample signal/Avg. DMSO)*100. The data were fit using a four-parameter logistic fit.

AsPC-1 (K-Ras G12D) [2] = assay: Potency assay: pERK; assay type: cell-based, human; conditions: Homo sapiens, ASPC1, read-out: pERK EC50
Protocol: The purpose of this assay is to measure the ability of test compounds to inhibit K-Ras in cells. […] This procedure measures a decrease in cellular pERK in response to test compounds. The procedure described below in NCI-H358 cells is applicable to K-Ras G12C.
NCI-H358 cells were grown and maintained using media and procedures recommended by the ATCC. On the day prior to compound addition, cells were plated in 384-well cell culture plates (40 μl/well) and grown overnight in a 37° C., 5% CO2 incubator. Test compounds were prepared in 10, 3-fold dilutions in DMSO, with a high concentration of 10 mM. On the day of assay, 40 nL of test compound was added to each well of cell culture plate using an Echo550 liquid handler (LabCyte®). Concentrations of test compound were tested in duplicate. After compound addition, cells were incubated 4 hours at 37° C., 5% CO2. Following incubation, culture medium was removed and cells were washed once with phosphate buffered saline.
In some experiments, cellular pERK level was determined using the AlphaLISA SureFire Ultra p-ERK1/2 Assay Kit (PerkinElmer). Cells were lysed in 25 μL lysis buffer, with shaking at 600 RPM at room temperature. Lysate (10 μL) was transferred to a 384-well Opti-plate (PerkinElmer) and 5 μL acceptor mix was added. After a 2-hour incubation in the dark, 5 μL donor mix was added, plate was sealed, and incubated 2 hours at room temperature. Signal was read on an Envision plate reader (PerkinElmer) using standard AlphaLISA settings. Analysis of raw data was carried out in Excel (Microsoft) and Prism (GraphPad). Signal was plotted vs. the decadal logarithm of compound concentration, and IC50 was determined by fitting a 4-parameter sigmoidal concentration response model.
In other experiments, cellular pERK was determined by In-Cell Western. Following compound treatment, cells were washed twice with 200 μL tris buffered saline (TBS) and fixed for 15 minutes with 150 μL 4% paraformaldehyde in TBS. Fixed cells were washed 4 times for 5 minutes with TBS containing 0.1% Triton X-100 (TBST) and then blocked with 100 μL Odyssey blocking buffer (LI-COR) for 60 minutes at room temperature. Primary antibody (PERK, CST-4370, Cell Signaling Technology) was diluted 1:200 in blocking buffer, and 50 μL was added to each well and incubated overnight at 4° C. Cells were washed 4 times for 5 minutes with TBST. Secondary antibody (IR-800CW rabbit, LI-COR, diluted 1:800) and DNA stain DRAQ5 (LI-COR, diluted 1:2000) were added and incubated 1-2 hours at room temperature. Cells were washed 4 times for 5 minutes with TBST. Plates were scanned on a Li—COR Odyssey CLx Imager. Analysis of raw data was carried out in Excel (Microsoft) and Prism (GraphPad). Signal was plotted vs. the decadal logarithm of compound concentration, and IC50 was determined by fitting a 4-parameter sigmoidal concentration response model.

Q: How did the IC50 (AsPC-1 (K-Ras G12D) [1]; K-Ras G12D, 5-day treatment) turn out when `CCn1c(-c2cccnc2[C@H](C)OC)c2c3cc(ccc31)-c1cc(O)cc(c1)C[C@H](NC(=O)[C@H](C(C)C)N(C)C(=O)N1CCN(C(=O)[C@H]3CN3)C(=O)C1)C(=O)N1CCC[C@H](N1)C(=O)OCC(C)(C)C2` [Example 143] was run?
A: > 10 µM

Q: With `CCn1c(-c2cccnc2[C@H](C)OC)c2c3cc(ccc31)-c1cc(O)cc(c1)C[C@H](NC(=O)[C@H](C(C)C)N(C)C(=O)CNC(=O)[C@@H]1CN1)C(=O)N1CCC[C@H](N1)C(=O)OCC(C)(C)C2` [Example 147] as the compound, how does the EC50 (AsPC-1 (K-Ras G12D) [2]) read?
A: < 5 µM

Q: And the IC50 (AsPC-1 (K-Ras G12D) [1])?
A: 1 to 10 µM

Q: For `CCn1c(-c2cccnc2[C@H](C)OC)c2c3cc(ccc31)-c1cc(O)cc(c1)C[C@H](NC(=O)[C@H](C(C)C)N(C)C(=O)[C@H]1CCCN1C(=O)[C@@H]1CN1)C(=O)N1CCC[C@H](N1)C(=O)OCC(C)(C)C2` [Example 151], which EC50 (AsPC-1 (K-Ras G12D) [2]) is on record?
A: < 5 µM

Q: What about the IC50 (AsPC-1 (K-Ras G12D) [1]) of the same compound?
A: 1 to 10 µM

Q: `CCn1c(-c2cccnc2[C@H](C)OC)c2c3cc(ccc31)-c1cc(O)cc(c1)C[C@H](NC(=O)[C@H](C(C)C)N(C)C(=O)[C@H]1CCCN1C(=O)[C@H]1CN1)C(=O)N1CCC[C@H](N1)C(=O)OCC(C)(C)C2` [Example 152] was tested. Which EC50 (AsPC-1 (K-Ras G12D) [2]) did it give?
A: < 5 µM

Q: And the IC50 (AsPC-1 (K-Ras G12D) [1])?
A: 1 to 10 µM

Q: `CCn1c(-c2cccnc2[C@H](C)OC)c2c3cc(ccc31)-c1cc(O)cc(c1)C[C@H](NC(=O)[C@H](C(C)C)N(C)C(=O)[C@H]1CC[C@@H](C)N1C(=O)[C@@H]1CN1)C(=O)N1CCC[C@H](N1)C(=O)OCC(C)(C)C2` [Example 153] was tested. Which EC50 (AsPC-1 (K-Ras G12D) [2]) did it give?
A: < 5 µM

Q: What about the IC50 (AsPC-1 (K-Ras G12D) [1]) of the same compound?
A: 1 to 10 µM

Q: Which results are given for `CCn1c(-c2cccnc2[C@H](C)OC)c2c3cc(ccc31)-c1cc(O)cc(c1)C[C@H](NC(=O)[C@H](C(C)C)N(C)C(=O)[C@H]1CC[C@@H](C)N1C(=O)[C@H]1CN1)C(=O)N1CCC[C@H](N1)C(=O)OCC(C)(C)C2` [Example 154]?
A: EC50 (AsPC-1 (K-Ras G12D) [2]): < 5 µM; IC50 (AsPC-1 (K-Ras G12D) [1]): 1 to 10 µM
